In patent publication US20110151020A1, “ACTIVE SUBSTANCE COMBINATION WITH GEMCITABINE FOR THE TREATMENT OF EPITHELIAL CANCER” (priority 2008, published 2011):

Tests used:
[1] = tested on: CD133+ CXCR4+ CSC subpopulation; assay: Flow cytometry of migrating CSC; assay type: cell-based, human
[2] = tested on: pancreatic cancer cells; assay: Transmigration assay (modified Boyden chamber, SDF-1 stimulus); assay type: cell-based, human; settings: SDF-1 as migratory stimulus
[3] = tested on: pretreated Qtracker-labeled pancreatic cancer cells; assay: Systemic infusion assay of pretreated cells (lung metastasis); assay type: in vivo, mice; settings: cells pretreated in vitro, systemically infused; lungs scanned
Excerpt: Recently, the inventors have shown that the chemokine receptor CXCR4 and its specific lig- and Stromal-Derived Factor-1 (SDF-1) plays a pivotal role in metastasis of pancreatic CSC (see Hermann et al., 2007, supra). […] Pretreated and Qtracker-labeled cells were systemically infused. Seeded cells were tracked using near infrared scanning of the lungs as the primary target organ. Positive signals were confirmed by histological analysis.
(§1) In vitro treatment of pancreatic cancer cells. […] For the evaluation of the in vivo tumorigenicity, […] L3.6pl cells were pretreated with the respective regimen and the remaining viable cells were orthotopically implanted into the pancreas of nude mice and evaluated on day 35. For the systemic infusion assay, cells were labelled with the Qtracker 800 labelling kit (Invitrogen) according to the manufacturer's instructions, and 5×10^5 cells were injected intravenously into mice. After 4 weeks, explanted lungs were scanned for metastases with a near-infrared imaging platform (Odyssey, Li-cor, Lincoln, Nebr.). Positive signals were verified by histology (H&E staining).

[4] = tested on: L3.6pl pancreatic cancer cells; assay: Tumorigenicity after in vitro pre-treatment and orthotopic implantation; assay type: in vivo, mice
Experimental: After 96 hours of pretreatment, the remaining viable cells were orthotopically implanted into the pancreas of mice, which received no further treatment in vivo.
Cultivated pancreatic cancer cells were exposed to either Gemcitabine alone representing clinical standard therapy, SB431542 alone, or a combination of Gemcitabine and SB431542 in the above given respective concentrations. After 96 hours of pretreatment, the remaining viable cells were orthotopically implanted into the pancreas of mice, which received no further treatment in vivo.
A prerequisite of CSC is their ability to form tumours in secondary recipients. Due to the limited number of cancer (stem) cells that can be obtained from primary tissues, it is virtually impossible to reproducibly perform in vivo treatment experiments with fresh patient-derived cells. Therefore, all subsequent in vivo experiments were performed with the established L3.6pl pancreatic cancer cells. The design of the experiment is illustrated in FIG. 20A. […] After 4 days of pretreatment, the surviving cells were orthotopically implanted into the pancreas, which received no further in vivo treatment. Tumorigenicity was first determined by PET scans on day 30 (FIGS. 20B, 20C; left panel) and by final macroscopic and microscopic histological evaluation on day 35 (FIGS. 20B, 20C; right panel).
(§2) Animals and Orthotopic Implantation of Tumour Cells. Single-cell suspensions were orthotopically implanted into the pancreas of female NMRI nu/nu mice (Janvier, Le Genest-Saint-Isle, France) (Hermann et al., 2007, supra). Size and weight of the pancreatic tumours were monitored.
as §1

[5] = tested on: primary human pancreatic cancer cells; assay: CSC content by flow cytometry in primary pancreatic cancer cells from patients; assay type: cell-based; settings: freshly isolated primary pancreatic cancer cells
Experimental: The findings from Examples 1.1 and 1.2 in tumour cell lines were reproduced in primary patient tissue with viability tested with propidium iodide (FIGS. 4A-4D).
The findings from Examples 2.1 in tumour cell lines were reproduced in fresh primary tumour cells from patients with pancreatic cancer with viability tested with propidium iodide (FIGS. 13A-13D). In vitro treatment with the combined therapy of 100 ng/ml Gemcitabine and 5 μM SB431542 led to the elimination of CD 133^+ cancer stem cells.
Primary human pancreatic cancer cells. Human pancreatic cancers were obtained with written informed consent from all patients. Tissue fragments were minced with scissors into small (1-2 mm^3) fragments. Enzymatic digestion was performed using a mixture of DMEM medium and collagenase (Stem Cell Technologies, Vancouver, Canada) for 90 min at 37° C. (Hermann et al., 2007, supra).
Cytometry. Pancreatic CSC were identified by CD133/1-APC or CD133-PE (Miltenyi, Bergisch-Gladbach, Germany) (Hermann et al., 2007, supra). Side population experiments were performed as described by Goodell et al. (1996) (see Goodell et al., 1996, J Exp Med 183, 1797-1806) and cells were identified by exclusion of the vital dye Hoechst 33342. […]

[6] = tested on: primary human pancreatic cancer tissue; assay: In vivo triple combination treatment of implanted patient pancreatic tumor tissue; parameters: species or system mice; settings: treatment from day 21; assessed up to 100 days
Experimental: Tumor tissue from patient with pancreatic cancer was implanted into immunocompromised mice. Treatment was started on day 21 after implantation. Mice were randomized to gemcitabine alone or combination therapy. Tumor growth was assessed up to 100 days.

[7] = tested on: L3.6pl orthotopic pancreatic tumours; assay: In vivo treatment of established orthotopic pancreatic cancer (Gemcitabine, Cyclopamine, Rapamycin)
Experimental: Gemcitabine was administered twice a week by intraperitoneal injections at 125 mg/kg BW.
In order to test the identified combination therapy in a clinically most relevant setting, a model of established orthotopic pancreatic cancer was used in this experiment. […] The detailed experimental setup is depicted in FIG. 21A. […] Gemcitabine was given for a prolonged period of 11 weeks in analogy to clinical practice. Tumour volume was non-invasively measured on day 42 using a caliper (FIG. 21B), and was controlled via MR imaging on day 49 (FIG. 21C).
as §2
In vivo treatment of established pancreatic cancers. Seven days after orthotopic implantation of L3.6pl cells, mice were randomized to the respective treatment groups. Gemcitabine was administered biweekly (125 mg/kg i.p.). […] Rapamycin (5 mg/kg/day; Wyeth, Madison, N.J.) was orally administered via the drinking water as reported previously (Huber et al., 2007, supra).

[8] = tested on: side population (SP) cells; assay: Side population (Hoechst 33342 exclusion); assay type: cell-based, human
Experimental: First, pancreatic CSC were clonally expanded as CSC-enriched spheres (FIGS. 18C1-18C5). Floating spheres were treated in ultra low adhesion 6-well plates. After completion of the treatment, five randomly selected high-power fields were analyzed.

SMILES: Nc1ccn(C2OC(CO)C(O)C2(F)F)c(=O)n1 (centres unmarked) [Gemcitabine, 4-amino-1-[3,3-difluoro-4-hydroxy-5-(hydroxymethyl)tetrahydrofuran-2-yl]-1H-pyrimidin-2-one]
- CD133+ CXCR4+ migrating CSC [1]: enriches
- migratory activity [2]: unable to significantly reduce
- metastatic activity in vivo [3]: all mice receiving Gemcitabine-pretreated cells showed evidence for metastasis
- tumour take rate / tumorigenicity ([4]; 4 days of pretreatment, PET day 30, histology day 35): did not generate any effect
- tumorigenicity after in vitro pre-treatment ([4]; 96 hours pretreatment, 100 ng/ml Gemcitabine, 5 μM SB431542): close to no effect
- CSC fraction (CD133+ and CD24+CD44+EpCAM+ populations) [5]: tended to relatively enrich
- tumor growth [6]: virtually unrestricted growth
- prolongation of median survival ([7]; Gemcitabine 125 mg/kg i.p. twice a week): 22 days
- survival ([7]; Gemcitabine vs control, CRG vs Gemcitabine alone): significantly prolonged
- tumour size ([7]; compared to control): significantly smaller compared to control
- tumour volume on day 42 (caliper) ([7]; day 42): considerable tumor size
- tumour volume via MR imaging on day 49 ([7]; day 49): considerable tumor size
- latest day of survival ([7]; mouse, in vivo): ≤ 71 days
- median survival ([7]; mouse, in vivo): 57 days
- tumour take rate ([7]; mouse, in vivo): 100%
- CD133+ cells in the residual tumour tissue ([7]; orthotopic mouse model of xenotransplanted human pancreatic cancer): significant enrichment
- side population (SP) cells [8]: unaffected
